Measured values as given in US6194441A, “Oxazolidinone derivatives and their use as antibacterial agents” (Zeneca Ltd., priority 1997, dated 2001).
≈ marks a conversion by molar mass, not a printed value. Structures can show the parent of a compound that is named as a salt.

Experiments:
[1] = system: Staphylococcus aureus Oxford; experiment: MIC by agar-dilution technique, S. aureus Oxford; type: cell-based; conditions: IsoSensitest agar, inoculum 10^4 CFU/spot, 37° C., 24 hours, Oxford strain
Procedure: (§1) The following results were obtained on a standard in vitro test system. The activity is described in terms of the minimum inhibitory concentration (MIC) determined by the agar-dilution technique with an inoculum size of 10^4 CFU/spot.
(§2) The organisms were tested on a standard semi-defined susceptability test medium (IsoSensitest agar), using an inoculum of 10^4 CFU/spot and an incubation temperature of 37° C. for 24 hours. Typically, compounds are active in the range 0.01 to 128 μg/ml.

[2] = system: Staphylococcus aureus Novb. Res.; experiment: MIC by agar-dilution technique, S. aureus novobiocin resistant; type: cell-based; conditions: 24 h
Procedure: as §1, §2

[3] = system: Staphylococcus aureus MRQR; experiment: MIC by agar-dilution technique, S. aureus MRQR; type: cell-based; conditions: IsoSensitest agar, inoculum 10^4 CFU/spot, 37° C., 24 hours, methicillin resistant quinolone resistant
Procedure: as §1, §2

[4] = system: Coagulase Negative Staphylococci MS; experiment: MIC by agar-dilution technique, coagulase negative staphylococci MS; type: cell-based; conditions: IsoSensitest agar, inoculum 10^4 CFU/spot, 37° C., 24 hours, methicillin sensitive
Procedure: as §1, §2

[5] = system: Coagulase Negative Staphylococci MR; experiment: MIC by agar-dilution technique, coagulase negative staphylococci MR; type: cell-based; conditions: IsoSensitest agar, inoculum 10^4 CFU/spot, 37° C., 24 hours, methicillin resistant
Procedure: as §1, §2

[6] = system: Streptococcus pyogenes C203; experiment: MIC by agar-dilution technique, S. pyogenes C203; type: cell-based; conditions: IsoSensitest agar, inoculum 10^4 CFU/spot, 37° C., 24 hours
Procedure: as §1, §2

Enterococcus faecalis = experiment: MIC by agar-dilution technique, E. faecalis; type: cell-based; conditions: IsoSensitest agar, inoculum 10^4 CFU/spot, 37° C., 24 hours
Procedure: as §1, §2

Bacillus subtilis = experiment: MIC by agar-dilution technique, B. subtilis; type: cell-based; conditions: IsoSensitest agar, inoculum 10^4 CFU/spot, 37° C., 24 hours
Procedure: as §1, §2

Solubility in water = type: physicochemical; conditions: dihydrochloride salt

**Q.** Which results are given for `CC(=O)NC[C@H]1CN(c2ccc(-n3cnc(C=CC#N)c3)c(F)c2)C(=O)O1` [Example 2]?
**A.** MIC [1]: 0.125 µg/mL (≈ 0.338 µM); MIC [2]: 0.25 µg/mL (≈ 0.677 µM); MIC [3]: 1 µg/mL (≈ 2.71 µM); MIC [4]: 0.06 µg/mL (≈ 0.162 µM); MIC [5]: 0.25 µg/mL (≈ 0.677 µM); MIC [6]: 0.125 µg/mL (≈ 0.338 µM); MIC (Enterococcus faecalis): 0.25 µg/mL (≈ 0.677 µM); MIC (Bacillus subtilis): 0.25 µg/mL (≈ 0.677 µM)

**Q.** With `CC(=O)NC[C@H]1CN(c2ccc(-n3cnc(/C=C/c4ccccn4)c3)c(F)c2)C(=O)O1` [Example 11 dihydrochloride salt, N-[(5S)-3-(3-Fluoro-4-(4-(E-2-(Pyrid-2-yl)ethenyl)imidazol-1-yl)phenyl)-2-oxooxazolidin-5-ylmethyl]acetamide] as the molecule, how does the solubility (Solubility in water) read?
**A.** Its solubility is about 10000 µg/mL.
